According to patent US8933040B2, “Selective glycosidase inhibitors and uses thereof” (priority 2010, dated 2015):
Read-outs that look alike come from different tables or passages of the source.

Legend:
[1] = target: human O-GlcNAcase (Homo sapiens (Human), UniProt O60502); assay: Fluorescence-based assay for determination of KI values for inhibition of O-GlcNAcase activity; assay type: biochemical
Description: Assay for Determination of KI Values for Inhibition of O-GlcNAcase Activity
Experimental Procedure for Kinetic Analyses:
Enzymatic reactions were carried out in a reaction containing 50 mM NaH2PO4, 100 mM NaCl and 0.1% BSA (pH 7.0) using 2 mM 4-Methylumbelliferyl N-acetyl-β-D-glucosaminide dihydrate (Sigma M2133) dissolved in ddH2O, as a substrate. The amount of purified human O-GlcNAcase enzyme used in the reaction was 0.7 nM. Test compound of varying concentrations was added to the enzyme prior to initiation of the reaction. The reaction was performed at room temperature in a 96-well plate and was initiated with the addition of substrate. […] The slope of product production was determined for each concentration of compound tested and plotted, using standard curve fitting algorithms for sigmoidal dose response curves. The values for a four parameter logistic curve fit of the data were determined.

[2] = target: O-GlcNAcase (Rattus norvegicus (Rat), UniProt Q8VIJ5); assay: Cell-based ELISA for cellular activity of O-GlcNAcase inhibitors (O-GlcNAcylated protein, RL-2 antibody)
Excerpt: Assay for Determination of Cellular Activity for Compounds that Inhibit O-GlcNAcase Activity
Inhibition of O-GlcNAcase, which removes O-GlcNAc from cellular proteins, results in an increase in the level of O-GlcNAcylated protein in cells. An increase in O-GlcNAcylated protein can be measured by an antibody, such as RL-2, that binds to O-GlcNAcylated protein. The amount of O-GlcNAcylated protein:RL2 antibody interaction can be measured by enzyme linked immunosorbant assay (ELISA) procedures.
A variety of tissue culture cell lines, expressing endogenous levels of O-GlcNAcase, can be utilized; examples include rat PC-12, and human U-87, or SK—N—SH cells. Rat PC-12 cells were plated in 96-well plates with approximately 10,000 cells/well. Compounds to be tested were dissolved in DMSO, either 2 or 10 mM stock solution, and then diluted with DMSO and water in a two-step process using a Tecan workstation. […] If desired, the total protein concentration of samples was determined using 20 μL of the sample using the BCA method. […]
The values for a four parameter logistic curve fit of the data were determined, with the inflection point of the curve being the potency value for the test compound.

[3] = purified human O-GlcNAcase 0.7 nM, 2 mM 4-Methylumbelliferyl N-acetyl-β-D-glucosaminide, pH 7.0, Cheng-Prusoff, read-out: Fluorescence-based hOGA Ki

Chain of human O-GlcNAcase (O60502 whole entry): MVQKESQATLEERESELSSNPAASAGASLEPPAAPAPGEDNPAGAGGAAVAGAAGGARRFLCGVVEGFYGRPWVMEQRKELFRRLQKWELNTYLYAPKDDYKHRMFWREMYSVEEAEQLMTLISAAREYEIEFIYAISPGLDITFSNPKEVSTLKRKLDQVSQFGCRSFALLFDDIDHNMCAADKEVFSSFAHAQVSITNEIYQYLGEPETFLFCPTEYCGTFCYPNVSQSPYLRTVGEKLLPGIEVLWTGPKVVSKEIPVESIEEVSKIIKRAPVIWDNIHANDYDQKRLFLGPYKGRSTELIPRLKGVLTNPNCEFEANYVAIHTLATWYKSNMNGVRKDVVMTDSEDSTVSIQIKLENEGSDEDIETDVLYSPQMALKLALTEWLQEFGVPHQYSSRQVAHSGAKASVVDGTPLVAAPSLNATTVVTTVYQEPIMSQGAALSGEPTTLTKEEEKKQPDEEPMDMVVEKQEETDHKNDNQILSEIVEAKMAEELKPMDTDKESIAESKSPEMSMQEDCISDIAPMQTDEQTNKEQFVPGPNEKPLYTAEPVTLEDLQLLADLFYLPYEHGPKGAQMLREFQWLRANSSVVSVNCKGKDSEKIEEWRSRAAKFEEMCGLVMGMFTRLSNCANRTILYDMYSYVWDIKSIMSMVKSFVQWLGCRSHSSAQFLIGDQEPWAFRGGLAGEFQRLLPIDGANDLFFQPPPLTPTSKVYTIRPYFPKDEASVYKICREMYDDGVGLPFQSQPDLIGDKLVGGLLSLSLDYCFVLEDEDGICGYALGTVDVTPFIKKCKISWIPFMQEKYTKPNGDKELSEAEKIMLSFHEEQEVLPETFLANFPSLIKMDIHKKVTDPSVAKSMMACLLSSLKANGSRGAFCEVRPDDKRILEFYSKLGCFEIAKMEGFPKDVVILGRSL
Chain of O-GlcNAcase (Q8VIJ5 whole entry): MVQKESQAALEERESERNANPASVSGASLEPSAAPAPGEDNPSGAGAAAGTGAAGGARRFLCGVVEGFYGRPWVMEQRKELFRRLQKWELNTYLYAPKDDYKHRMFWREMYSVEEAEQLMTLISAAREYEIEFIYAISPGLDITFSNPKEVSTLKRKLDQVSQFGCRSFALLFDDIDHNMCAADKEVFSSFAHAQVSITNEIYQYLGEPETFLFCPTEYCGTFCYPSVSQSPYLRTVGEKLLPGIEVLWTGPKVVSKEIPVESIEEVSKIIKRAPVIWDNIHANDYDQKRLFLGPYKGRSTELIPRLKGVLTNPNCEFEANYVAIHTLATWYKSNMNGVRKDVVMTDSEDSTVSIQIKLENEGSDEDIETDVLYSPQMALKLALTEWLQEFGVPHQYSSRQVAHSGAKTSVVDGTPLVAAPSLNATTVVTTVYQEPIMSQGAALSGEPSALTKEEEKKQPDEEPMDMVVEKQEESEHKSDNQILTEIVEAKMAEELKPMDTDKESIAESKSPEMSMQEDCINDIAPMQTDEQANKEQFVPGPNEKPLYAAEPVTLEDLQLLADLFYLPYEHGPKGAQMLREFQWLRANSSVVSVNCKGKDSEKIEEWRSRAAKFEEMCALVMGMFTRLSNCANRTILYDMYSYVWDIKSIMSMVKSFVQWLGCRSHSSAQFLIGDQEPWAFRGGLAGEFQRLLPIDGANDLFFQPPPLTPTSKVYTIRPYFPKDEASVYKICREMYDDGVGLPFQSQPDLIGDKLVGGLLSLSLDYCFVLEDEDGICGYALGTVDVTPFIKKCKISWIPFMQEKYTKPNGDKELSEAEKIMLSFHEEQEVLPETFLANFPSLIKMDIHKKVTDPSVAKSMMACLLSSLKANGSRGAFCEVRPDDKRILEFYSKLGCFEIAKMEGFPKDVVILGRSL

Row | Structure (SMILES) | Ki [1, 3] | also measured
1 | OC[C@H]1O[C@@H]2SC(N3CC(F)C3)=N[C@@H]2[C@@H](O)[C@@H]1O [Example 3, (3aR,5R,6S,7R,7aR)-2-(3-fluoroazetidin-1-yl)-5-(hydroxymethyl)-5,6,7,7a-tetrahydro-3aH-pyrano[3,2-d]thiazole-6,7-diol] | 30 nM | 
2 | CN(C)C(=O)OC[C@H]1O[C@@H]2SC(N3CCC3)=N[C@@H]2[C@@H](O)[C@@H]1O [Example 18, ((3aR,5R,6S,7R,7aR)-2-(azetidin-1-yl)-6,7-dihydroxy-5,6,7,7a-tetrahydro-3aH-pyrano[3,2-d]thiazol-5-yl)methyl dimethylcarbamate] | 350 nM | 
3 | O[C@H]1[C@H](O)[C@@H](CNC2CC2)O[C@@H]2SC(N3CCC3)=N[C@H]12 [Example 16, (3aR,5R,6S,7R,7aR)-2-(azetidin-1-yl)-5-((cyclopropylamino)methyl)-5,6,7,7a-tetrahydro-3aH-pyrano[3,2-d]thiazole-6,7-diol] | 101 nM | 
4 | COC1CN(C2=N[C@@H]3[C@@H](O)[C@H](O)[C@@H](CO)O[C@@H]3S2)C1 [Example 5, (3aR,5R,6S,7R,7aR)-5-(hydroxymethyl)-2-(3-methoxyazetidin-1-yl)-5,6,7,7a-tetrahydro-3aH-pyrano[3,2-d]thiazole-6,7-diol] | 142 nM | 
5 | OC[C@H]1O[C@@H]2SC(N3CCOCC3)=N[C@@H]2[C@@H](O)[C@@H]1O [Example 14, (3aR,5R,6S,7R,7aR)-5-(hydroxymethyl)-2-morpholino-5,6,7,7a-tetrahydro-3aH-pyrano[3,2-d]thiazole-6,7-diol] | 289 nM | 
6 | OC[C@H]1O[C@@H]2SC(N3CCC3)=N[C@@H]2[C@@H](O)C1O (stereo in doubt) [Example 1, (3aR,5R,6S,7R,7aR)-2-(azetidin-1-yl)-5-(hydroxymethyl)-5,6,7,7a-tetrahydro-3aH-pyrano[3,2-d]thiazole-6,7-diol] |  | EC50 [2]: 28 nM; Ki [1]: 3.3 nM
7 | OC[C@H]1O[C@@H]2SC(N3CCCC3)=N[C@@H]2[C@@H](O)[C@@H]1O [Example 7, (3aR,5R,6S,7R,7aR)-5-(hydroxymethyl)-2-(pyrrolidin-1-yl)-5,6,7,7a-tetrahydro-3aH-pyrano[3,2-d]thiazole-6,7-diol] | 13 nM | EC50 ([2]; Rat PC-12 cells, 24 h treatment, increase in O-GlcNAcylated protein detected with RL-2 antibody, read-out: Cell-based ELISA EC50): 165 nM
